What was measured:
[1] = Ratio of unbound drug level in brain to plasma in Sprague-Dawley rat; assay type: ADME, organism-based
[2] = Clearance in Sprague-Dawley rat at 1 mg/kg, po and 0.5 mg/kg, iv; assay type: ADME, organism-based; settings: in vivo
[3] = system: Rattus norvegicus; assay: Unbound clearance in Sprague-Dawley rat at 1 mg/kg, po and 0.5 mg/kg, iv; assay type: ADME, organism-based; settings: in vivo
[4] = Clearance in rat hepatocytes at 1 uM by LC-MS/MS analysis; assay type: ADME, cell-based, Hepatocyte
[5] = Clearance in human hepatocytes at 1 uM by LC-MS/MS analysis; assay type: ADME, cell-based, Hepatocyte
[6] = target: T1, Leucine-rich repeat serine/threonine-protein kinase 2 (Homo sapiens, UniProt Q5S007); assay: Inhibition of LRRK2 (unknown origin) phosphorylation by cell-based assay
[7] = target: T1, Leucine-rich repeat serine/threonine-protein kinase 2; assay: Inhibition of LRRK2 (unknown origin)
[8] = organism: Homo sapiens; assay: Selectivity ratio of Ki for JAK2 (unknown origin) to Ki for LRRK2 (unknown origin)
[9] = target: MDR1 (P-gp, ABCB1) (Homo sapiens, UniProt P08183); assay: Activity at human MDR1 transfected in MDCK cells assessed as efflux ratio of apparent permeability from basolateral to apical side over apical to basolateral side at 5 uM; assay type: ADME, cell-based
[10] = Thermodynamic solubility of the crystalline form of compound at pH 7.4; assay type: physicochemical; settings: read-out: Therm_solubility

Sequence of MDR1 (P-gp, ABCB1) (P08183 whole entry): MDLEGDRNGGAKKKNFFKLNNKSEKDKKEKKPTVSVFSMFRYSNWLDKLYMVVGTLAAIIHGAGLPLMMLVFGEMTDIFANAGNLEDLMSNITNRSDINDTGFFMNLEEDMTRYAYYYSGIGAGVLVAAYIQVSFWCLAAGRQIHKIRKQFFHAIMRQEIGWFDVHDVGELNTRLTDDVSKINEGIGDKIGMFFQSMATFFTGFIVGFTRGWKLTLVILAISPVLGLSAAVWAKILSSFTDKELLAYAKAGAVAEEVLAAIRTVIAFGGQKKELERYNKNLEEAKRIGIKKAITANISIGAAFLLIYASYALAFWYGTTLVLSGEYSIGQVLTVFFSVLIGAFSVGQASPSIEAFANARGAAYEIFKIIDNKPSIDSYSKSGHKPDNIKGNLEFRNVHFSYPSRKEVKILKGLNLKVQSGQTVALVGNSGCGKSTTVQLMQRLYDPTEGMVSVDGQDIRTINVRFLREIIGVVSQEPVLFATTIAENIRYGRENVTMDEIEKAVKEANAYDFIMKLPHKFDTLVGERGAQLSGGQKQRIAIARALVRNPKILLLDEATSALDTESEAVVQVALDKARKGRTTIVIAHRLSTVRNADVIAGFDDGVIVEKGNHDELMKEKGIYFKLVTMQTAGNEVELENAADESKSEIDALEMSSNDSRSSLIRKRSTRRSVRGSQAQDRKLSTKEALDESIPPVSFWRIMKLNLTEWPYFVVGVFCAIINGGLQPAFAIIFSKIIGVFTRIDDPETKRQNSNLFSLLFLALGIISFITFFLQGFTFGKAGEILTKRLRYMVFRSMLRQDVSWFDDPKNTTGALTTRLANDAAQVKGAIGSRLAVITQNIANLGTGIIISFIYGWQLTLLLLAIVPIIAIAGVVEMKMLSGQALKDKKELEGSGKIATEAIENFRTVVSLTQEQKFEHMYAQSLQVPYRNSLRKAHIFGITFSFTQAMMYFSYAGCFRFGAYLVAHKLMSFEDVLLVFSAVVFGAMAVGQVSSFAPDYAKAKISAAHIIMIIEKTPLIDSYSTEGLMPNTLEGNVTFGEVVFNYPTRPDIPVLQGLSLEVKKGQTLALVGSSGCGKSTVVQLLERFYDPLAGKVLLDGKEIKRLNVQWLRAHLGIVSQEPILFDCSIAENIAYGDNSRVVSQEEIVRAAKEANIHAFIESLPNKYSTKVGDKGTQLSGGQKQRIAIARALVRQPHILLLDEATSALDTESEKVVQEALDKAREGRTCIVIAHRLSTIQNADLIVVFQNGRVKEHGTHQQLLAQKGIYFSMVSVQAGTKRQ
T1 sequence (Q5S007 whole entry): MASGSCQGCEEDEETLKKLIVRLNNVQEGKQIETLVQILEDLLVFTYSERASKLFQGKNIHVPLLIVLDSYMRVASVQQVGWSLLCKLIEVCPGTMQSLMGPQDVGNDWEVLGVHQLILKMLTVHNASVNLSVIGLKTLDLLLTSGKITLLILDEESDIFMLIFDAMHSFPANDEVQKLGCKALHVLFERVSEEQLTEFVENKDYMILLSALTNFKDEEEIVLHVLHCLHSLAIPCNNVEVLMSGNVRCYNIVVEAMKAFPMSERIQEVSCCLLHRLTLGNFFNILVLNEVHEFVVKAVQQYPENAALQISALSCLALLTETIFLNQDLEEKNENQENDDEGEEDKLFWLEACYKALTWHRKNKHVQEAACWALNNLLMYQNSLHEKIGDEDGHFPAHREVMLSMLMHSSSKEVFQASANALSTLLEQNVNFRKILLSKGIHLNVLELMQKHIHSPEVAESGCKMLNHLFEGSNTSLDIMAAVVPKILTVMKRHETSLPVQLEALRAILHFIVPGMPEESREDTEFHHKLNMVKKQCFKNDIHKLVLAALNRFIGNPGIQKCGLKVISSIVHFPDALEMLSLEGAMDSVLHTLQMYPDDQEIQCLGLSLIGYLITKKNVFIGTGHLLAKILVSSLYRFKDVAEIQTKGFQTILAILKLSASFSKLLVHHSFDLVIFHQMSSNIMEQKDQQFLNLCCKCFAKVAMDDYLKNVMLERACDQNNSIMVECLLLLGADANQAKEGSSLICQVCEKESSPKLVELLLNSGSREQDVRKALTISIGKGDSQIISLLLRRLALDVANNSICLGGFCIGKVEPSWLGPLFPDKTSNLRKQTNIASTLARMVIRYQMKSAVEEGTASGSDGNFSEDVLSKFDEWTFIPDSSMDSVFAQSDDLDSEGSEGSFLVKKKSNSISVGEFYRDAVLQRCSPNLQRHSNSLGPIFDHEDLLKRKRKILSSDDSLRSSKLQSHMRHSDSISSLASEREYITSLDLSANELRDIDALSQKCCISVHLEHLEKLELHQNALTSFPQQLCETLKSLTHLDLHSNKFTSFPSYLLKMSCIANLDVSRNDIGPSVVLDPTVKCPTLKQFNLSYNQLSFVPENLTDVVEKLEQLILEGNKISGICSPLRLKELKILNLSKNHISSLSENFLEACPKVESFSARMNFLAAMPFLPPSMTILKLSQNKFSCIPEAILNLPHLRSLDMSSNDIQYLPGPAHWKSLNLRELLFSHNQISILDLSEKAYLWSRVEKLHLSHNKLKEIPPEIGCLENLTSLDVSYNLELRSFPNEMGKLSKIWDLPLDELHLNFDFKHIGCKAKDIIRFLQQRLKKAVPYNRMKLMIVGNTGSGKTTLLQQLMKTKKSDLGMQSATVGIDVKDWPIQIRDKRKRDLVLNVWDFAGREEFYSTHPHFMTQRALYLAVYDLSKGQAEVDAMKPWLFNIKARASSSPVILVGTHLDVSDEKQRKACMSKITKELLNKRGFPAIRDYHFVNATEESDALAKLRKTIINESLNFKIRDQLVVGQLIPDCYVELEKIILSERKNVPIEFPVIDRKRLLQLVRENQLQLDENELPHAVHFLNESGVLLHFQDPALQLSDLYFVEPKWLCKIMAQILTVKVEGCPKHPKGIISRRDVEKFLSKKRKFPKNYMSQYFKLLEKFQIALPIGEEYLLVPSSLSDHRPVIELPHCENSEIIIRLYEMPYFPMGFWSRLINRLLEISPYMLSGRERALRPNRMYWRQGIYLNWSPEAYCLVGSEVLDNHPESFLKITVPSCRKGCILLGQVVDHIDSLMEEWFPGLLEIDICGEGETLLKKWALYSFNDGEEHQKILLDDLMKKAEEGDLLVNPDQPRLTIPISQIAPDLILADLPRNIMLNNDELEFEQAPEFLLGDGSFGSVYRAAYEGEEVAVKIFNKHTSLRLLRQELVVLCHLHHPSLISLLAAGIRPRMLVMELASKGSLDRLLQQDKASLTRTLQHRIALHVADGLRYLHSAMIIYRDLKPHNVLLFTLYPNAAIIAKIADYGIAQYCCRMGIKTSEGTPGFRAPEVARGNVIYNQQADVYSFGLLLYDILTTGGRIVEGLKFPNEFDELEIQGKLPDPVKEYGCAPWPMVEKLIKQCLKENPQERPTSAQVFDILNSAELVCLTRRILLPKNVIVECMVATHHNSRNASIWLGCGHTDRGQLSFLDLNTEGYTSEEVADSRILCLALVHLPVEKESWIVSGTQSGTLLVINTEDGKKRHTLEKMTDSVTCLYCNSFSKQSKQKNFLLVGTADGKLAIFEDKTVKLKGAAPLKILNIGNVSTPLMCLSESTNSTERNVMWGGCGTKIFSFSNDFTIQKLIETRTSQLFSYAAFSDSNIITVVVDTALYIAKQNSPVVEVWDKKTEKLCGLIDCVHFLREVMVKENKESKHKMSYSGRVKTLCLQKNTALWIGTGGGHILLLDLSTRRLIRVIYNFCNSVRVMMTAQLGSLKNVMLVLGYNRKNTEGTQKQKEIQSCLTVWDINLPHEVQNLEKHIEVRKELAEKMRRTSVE

Structure (SMILES) | Kp uu [1] | clearance [2] [L/h/kg] | CL free [3] [L/h/kg] | CLhep predicted at 1 µM [4] [L/h/kg] | CLhep predicted at 1 µM [5] [L/h/kg] | IC50 [6] [µM] | Ki [7] [µM] | Ratio Ki [8] | efflux ratio at 5 µM [9] | solubility thermodynamic [10] [µg/mL]
CNc1nc(Nc2cn(C3(C#N)CC3)nc2C)ncc1C(F)(F)F | 0.4 | 3.3 | 12.8 | 0.84 | 0.3 | 0.03 | 0.003 | > 150 | 1.4 | –
CNc1nc(Nc2cnn(C(C)(C)C#N)c2C)ncc1C(F)(F)F | 0.4 | 3.9 | 25.4 | 1.98 | 0.24 | 0.005 | 0.001 | > 150 | 1 | –
CNc1nc(Nc2cnn(C3(C#N)CC3)c2Cl)ncc1C(F)(F)F | 0.6 | 1.32 | 25.9 | 1.8 | 0.54 | 0.022 | 0.002 | > 150 | 1.3 | –
CNc1nc(Nc2cn(C(C)(C)C(=O)NCC(F)(F)F)nc2C)ncc1C(F)(F)F | – | – | – | – | – | 0.053 | – | > 150 | 1.5 | –
CCNC(=O)C(C)(C)n1cc(Nc2ncc(C(F)(F)F)c(NC)n2)c(C)n1 | – | – | – | – | – | 0.099 | – | > 150 | 4 | –
CNc1nc(Nc2cnn3c2COC(C)(C)C3)ncc1C(F)(F)F | – | – | – | – | 0.72 | 0.02 | 0.0009 | > 150 | 0.7 | –
CNc1nc(Nc2cnn3c2C(C)OCC3)ncc1C(F)(F)F (configuration not stated) | – | 2.58 | 6.3 | 1.14 | 0.18 | 0.042 | 0.003 | > 150 | 1.3 | –
CCNc1nc(Nc2cc(F)c(C(=O)N3CCOCC3)cc2OC)ncc1C(F)(F)F | – | – | – | – | – | – | – | > 150 | – | < 2
CNc1nc(Nc2cnn3c2COCC3)ncc1C(F)(F)F | – | – | – | – | – | 0.018 | 0.003 | > 150 | 1 | –
